The test system of one test is rats.
Assay: not given
The settings on record: papaverine alone; cited from earlier work.
Chain of PDE10A enzyme (Q9Y233 716-1055): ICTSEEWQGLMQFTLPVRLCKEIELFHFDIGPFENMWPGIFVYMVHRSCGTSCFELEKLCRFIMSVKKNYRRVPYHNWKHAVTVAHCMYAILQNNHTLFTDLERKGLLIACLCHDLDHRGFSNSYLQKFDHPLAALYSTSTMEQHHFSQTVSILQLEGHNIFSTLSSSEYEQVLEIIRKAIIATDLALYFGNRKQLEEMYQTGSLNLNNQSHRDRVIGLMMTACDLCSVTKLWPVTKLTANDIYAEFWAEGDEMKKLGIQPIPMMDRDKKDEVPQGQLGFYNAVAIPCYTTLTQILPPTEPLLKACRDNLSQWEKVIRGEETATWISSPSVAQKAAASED
In the case of `COc1ccc(Cc2nccc3cc(OC)c(OC)cc23)cc1OC` [Papaverine, papaverine], the “catalepsy caused on its own” value is “did not cause catalepsy on its own”.

Still in this test, the particulars now being: with the D2 receptor antagonist haloperidol; cited from earlier work.
For `COc1ccc(Cc2nccc3cc(OC)c(OC)cc23)cc1OC` [Papaverine, papaverine], the “effect on the cataleptic effect of haloperidol” value is listed as “potentiated the cataleptic effect”.

The next test deals with PDE10A enzyme (Homo sapiens (Human), UniProt Q9Y233). Put plainly: PDE10A inhibition assay. Format: biochemical. To be noted: tritium labeled cAMP substrate 5 nM. The protocol:
Active PDE10A enzyme is prepared in a number of ways for use in PDE assays (Loughney, K. et al. Gene 1999, 234, 109-117; Fujishige, K. et al. Eur J Biochem. 1999, 266, 1118-1127 and Soderling, S. et al. Proc. Natl. Acad. Sci. 1999, 96, 7071-7076). PDE10A can be expressed as full-length proteins or as truncated proteins, as long as they express the catalytic domain. PDE10A can be prepared in different cell types, for example insect cells or E. coli. An example of a method to obtain catalytically active PDE10A is as follows: The catalytic domain of human PDE10A (amino acids 440-779 from the sequence with accession number NP 006652) is amplified from total human brain total RNA by standard RT-PCR and is cloned into the BamH1 and Xho1 sites of the pET28a vector (Novagen). Expression in coli is performed according to standard protocols. Briefly, the expression plasmids are transformed into the BL21(DE3) E. coli strain, and 50 mL cultures inoculated with the cells allowed to grow to an OD600 of 0.4-0.6 before protein expression is induced with 0.5 mM IPTG. Following induction, the cells are incubated overnight at room temperature, after which the cells are collected by centrifugation. Cells expressing PDE10A are resuspended in 12 mL (50 mM TRIS-HCl-pH8.0, 1 mM MgCl2 and protease inhibitors). The cells are lysed by sonication, and after all cells are lysed, TritonX100 is added according to Novagen protocols.
A PDE10A assay may for example, be performed as follows: The assay is performed in 60 uL samples containing a fixed amount of the relevant PDE enzyme (sufficient to convert 20-25% of the cyclic nucleotide substrate), a buffer (50 mM HEPES7.6; 10 mM MgCl2; 0.02% Tween20), 0.1 mg/ml BSA, 225 pCi of ^3H-labelled cyclic nucleotide substrate, tritium labeled cAMP to a final concentration of 5 nM and varying amounts of inhibitors. Reactions are initiated by addition of the cyclic nucleotide substrate, and reactions are allowed to proceed for one hr at room temperature before being terminated through mixing with 15 uL 8 mg/mL yttrium silicate SPA beads (Amersham). The beads are allowed to settle for one hr in the dark before the plates are counted in a Wallac 1450 Microbeta counter. The measured signal can be converted to activity relative to an uninhibited control (100%) and IC50 values can be calculated using the Xlfit extension to EXCEL.
For `Cc1ccc(C)n2nc(CCc3c[nH]c(-c4ccco4)n3)nc12` [2-[2-(2-Furan-2-yl-1H-imidazol-4-yl)-ethyl]-5,8-dimethyl-[1,2,4]triazolo[1,5-a]pyridine], the IC50 (commonly the midpoint of a concentration-inhibition curve) came to 0.62 nM. This counts as sub-nanomolar.
In turn, `Cc1ccc(C)n2nc(CCc3c[nH]c(-c4cscn4)n3)nc12` [5,8-Dimethyl-2-[2-(2-thiazol-4-yl-1H-imidazol-4-yl)-ethyl]-[1,2,4]triazolo[1,5-a]pyridine] had an IC50 of 3.5 nM. Compared with the last compound, the IC50 is about 5.6-fold higher.
`Cc1ccc(C)n2nc(CCc3c[nH]c(-c4cncs4)n3)nc12` [5,8-Dimethyl-2-[2-(2-thiazol-5-yl-1H-imidazol-4-yl)-ethyl]-[1,2,4]triazolo[1,5-a]pyridine] registered an IC50 of 3.1 nM. This IC50 and that of the compound before are within 1.5-fold of each other.
Regarding `Cc1ccc(-c2nc(CCc3nc4c(C)ncc(C)n4n3)cn2C)o1` [5,8-Dimethyl-2-{2-[1-methyl-2-(5-methyl-furan-2-yl)-1H-imidazol-4-yl]-ethyl}-[1,2,4]triazolo[1,5-a]pyrazine], the midpoint of inhibition, the IC50, lay at 3.5 nM.
Same read-out and setting: as for `Cc1ccc(C)n2nc(CCc3c[nH]c(-c4ccoc4)n3)nc12` [2-[2-(2-Furan-3-yl-1H-imidazol-4-yl)-ethyl]-5,8-dimethyl-[1,2,4]triazolo[1,5-a]pyridine], the figure is 0.65 nM.
On the same count and under the same terms, then `Cc1ncc(C)n2nc(CCc3c[nH]c(-c4ccco4)n3)nc12` [2-[2-(2-Furan-2-yl-1H-imidazol-4-yl)-ethyl]-5,8-dimethyl-[1,2,4]triazolo[1,5-a]pyrazine], with 0.97 nM.
Same read-out and setting: as for `Cc1ncc(C)n2nc(CCc3c[nH]c(-c4nccs4)n3)nc12` [5,8-Dimethyl-2-[2-(2-thiazol-2-yl-1H-imidazol-4-yl)-ethyl]-[1,2,4]triazolo[1,5-a]pyrazine], the figure is 0.63 nM.
The compound `Cc1ncc(C)n2nc(CCc3c[nH]c(-c4cncs4)n3)nc12` [5,8-Dimethyl-2-[2-(2-thiazol-5-yl-1H-imidazol-4-yl)-ethyl]-[1,2,4]triazolo[1,5-a]pyrazine] had an IC50 of 6.5 nM.
Same read-out and setting: then `Cc1ncc(C)n2nc(CCc3c[nH]c(-c4ccc(F)cc4)n3)nc12` [2-{2-[2-(4-Fluoro-phenyl)-1H-imidazol-4-yl]-ethyl}-5,8-dimethyl-[1,2,4]triazolo[1,5-a]pyrazine], with 12 nM.
On the same count and under the same terms, then `Cc1ncc(C)n2nc(CCc3cn(C)c(-c4cscn4)n3)nc12` [5,8-Dimethyl-2-[2-(1-methyl-2-thiazol-4-yl-1H-imidazol-4-yl)-ethyl]-[1,2,4]triazolo[1,5-a]pyrazine], with 11 nM; and `Cc1ccc(C)n2nc(CCc3c[nH]c(-c4cccs4)n3)nc12` [5,8-Dimethyl-2-[2-(2-thiophen-2-yl-1H-imidazol-4-yl)-ethyl]-[1,2,4]triazolo[1,5-a]pyridine], with 0.34 nM.
Compound `Cc1ncc(C)n2nc(CCc3cn(C)c(-c4cccs4)n3)nc12` [5,8-Dimethyl-2-[2-(1-methyl-2-thiophen-2-yl-1H-imidazol-4-yl)-ethyl]-[1,2,4]triazolo[1,5-a]pyrazine] registered an IC50 of 1 nM.
Same read-out and setting: then `COc1ccc(C)n2nc(CCc3cn(C)c(-c4cccs4)n3)nc12` [8-Methoxy-5-methyl-2-[2-(1-methyl-2-thiophen-2-yl-1H-imidazol-4-yl)-ethyl]-[1,2,4]triazolo[1,5-a]pyridine], with 9 nM.
Same read-out and setting: as for `Cc1ccc(C)n2nc(CCc3c[nH]c(-c4nccs4)n3)nc12` [5,8-Dimethyl-2-[2-(2-thiazol-2-yl-1H-imidazol-4-yl)-ethyl]-[1,2,4]triazolo[1,5-a]pyridine], the figure is 1.6 nM; as for `COc1ccc(C)n2nc(CCc3c[nH]c(-c4ccccc4)n3)nc12` [8-Methoxy-5-methyl-2-[2-(2-phenyl-1H-imidazol-4-yl)-ethyl]-[1,2,4]triazolo[1,5-a]pyridine], 5.9 nM.
`Cc1ncc(C)n2nc(CCc3cn(C)c(-c4cncs4)n3)nc12` [5,8-Dimethyl-2-[2-(1-methyl-2-thiazol-5-yl-1H-imidazol-4-yl)-ethyl]-[1,2,4]triazolo[1,5-a]pyrazine] displayed an IC50 of 22 nM.
The same measure, in the same setting: as for `COc1ccc(C)n2nc(CCc3cn(C)c(-c4ccccc4)n3)nc12` [8-Methoxy-5-methyl-2-[2-(1-methyl-2-phenyl-1H-imidazol-4-yl)-ethyl]-[1,2,4]triazolo[1,5-a]pyridine], the figure is 79 nM.
On to `Cc1ncc(C)n2nc(CCc3cn(C)c(-c4ccccc4)n3)nc12` [5,8-Dimethyl-2-[2-(1-methyl-2-phenyl-1H-imidazol-4-yl)-ethyl]-[1,2,4]triazolo[1,5-a]pyrazine], for which the concentration for half-maximal inhibition (IC50) came out at 45 nM.
The same measure, in the same setting: as for `Cc1ncc(C)n2nc(CCc3cn(C)c(-c4ccco4)n3)nc12` [2-[2-(2-Furan-2-yl-1-methyl-1H-imidazol-4-yl)-ethyl]-5,8-dimethyl-[1,2,4]triazolo[1,5-a]pyrazine], the figure is 1.1 nM; as for `Cc1ncc(C)n2nc(CCc3c[nH]c(-c4cccs4)n3)nc12` [5,8-Dimethyl-2-[2-(2-thiophen-2-yl-1H-imidazol-4-yl)-ethyl]-[1,2,4]triazolo[1,5-a]pyrazine], 0.4 nM; as for `Cc1ncc(C)n2nc(CCc3c[nH]c(-c4ccoc4)n3)nc12` [2-[2-(2-Furan-3-yl-1H-imidazol-4-yl)-ethyl]-5,8-dimethyl-[1,2,4]triazolo[1,5-a]pyrazine], 0.27 nM.
The compound `Cc1ncc(C)n2nc(CCc3c[nH]c(-c4ccccc4)n3)nc12` [5,8-Dimethyl-2-[2-(2-phenyl-1H-imidazol-4-yl)-ethyl]-[1,2,4]triazolo[1,5-a]pyrazine] showed an IC50 of 4.2 nM. This IC50 lies about 16-fold higher than the previous one.
The same measure, in the same setting: as for `Cc1ncc(C)n2nc(CCc3c[nH]c(-c4cscn4)n3)nc12` [5,8-Dimethyl-2-[2-(2-thiazol-4-yl-1H-imidazol-4-yl)-ethyl]-[1,2,4]triazolo[1,5-a]pyrazine], the figure is 3.5 nM; as for `Cc1ccc(C)n2nc(CCc3cn(C)c(-c4ccco4)n3)nc12` [2-[2-(2-Furan-2-yl-1-methyl-1H-imidazol-4-yl)-ethyl]-5,8-dimethyl-[1,2,4]triazolo[1,5-a]pyridine], 0.75 nM.
Still for that read-out and setting: as for `Cc1ncc(C)n2nc(CCc3cn(C)c(-c4nccs4)n3)nc12` [5,8-Dimethyl-2-[2-(1-methyl-2-thiazol-2-yl-1H-imidazol-4-yl)-ethyl]-[1,2,4]triazolo[1,5-a]pyrazine], the figure is 7.7 nM; as for `CCc1ccc(C)n2nc(CCc3cn(C)c(-c4ccccc4)n3)nc12` [8-Ethyl-5-methyl-2-[2-(1-methyl-2-phenyl-1H-imidazol-4-yl)-ethyl]-[1,2,4]triazolo[1,5-a]pyridine], 23 nM.

A further test relates to rats.
Assay: not given
To be noted: cited from earlier work.
With `COc1ccc(Cc2nccc3cc(OC)c(OC)cc23)cc1OC` [Papaverine, papaverine], the “reduction of amphetamine induced hyperactivity” value is “insignificant”.

Another test has as its system rats.
Assay: not given
The settings on record: cited from earlier work. This is another data set of the same source.
Regarding `COc1ccc(Cc2nccc3cc(OC)c(OC)cc23)cc1OC` [Papaverine, papaverine], the “hyperactivity induced by PCP” value was “reduced hyperactivity”.

These data come from US8927738B2, “2-arylimidazole derivatives as PDE10A enzyme inhibitors” (H. Lundbeck A/S, priority 2009, dated 2015).
